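All cell lines were grown in 96-well plates and treated with compound for 48 hours. The concentration for full growth arrest is given as TGI.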
What was measured:
Test in all cases: NCI-60 cell line screen, 48 h
[1] = test system: SNB-19 CNS
[2] = test system: KM12 colon
[3] = test system: 786-0 renal
[4] = test system: SF-295 CNS
[5] = test system: RXF 393 renal
[6] = test system: SK-MEL-5 melanoma
[7] = test system: IGROV1 ovarian
[8] = test system: SF-539 CNS
[9] = test system: OVCAR-8 ovarian
[10] = test system: MDA-N
[11] = test system: OVCAR-3 ovarian
[12] = test system: UACC-62 melanoma
[13] = test system: DU-145 prostate

Structure (SMILES)	TGI [1]	TGI [2]	TGI [3]	TGI [4]	TGI [5]	TGI [6]	TGI [7]	TGI [8]	TGI [9]	TGI [10]	TGI [11]	TGI [12]	TGI [13]
C=C(CN1CC2C[C@](C(=O)OC)(c3cc4ccccc4[nH]3)C1C(OC)C2OC)S(=O)(=O)c1ccccc1 (stereo partly specified)	24.3 µM	10.7 µM	10 µM	14.5 µM	10.1 µM	10.7 µM	8.98 µM	16.9 µM	12.6 µM	8.94 µM	10.2 µM	14.8 µM	14.1 µM
O=C1CC(=O)NC(=NNS(=O)(=O)c2ccccc2)N1	> 100 µM	> 100 µM	> 100 µM	> 100 µM	> 100 µM	> 100 µM	> 100 µM	> 100 µM	> 100 µM	> 100 µM	> 100 µM	> 100 µM	> 100 µM
COC(=O)C1=C(C)C=C(N2CCOCC2)C(C(=O)OC)C1c1ccccc1 (stereo unspecified)	> 10 µM	> 10 µM	> 10 µM	> 10 µM	> 10 µM	> 10 µM	> 10 µM	> 10 µM	> 10 µM	> 10 µM	> 10 µM		> 10 µM
CSc1ccc(/C=C2\N=C(c3ccccc3)N(c3nc4cc(C)c(C)cc4s3)C2=O)cc1	83.9 µM	> 100 µM	61.6 µM	> 100 µM	62.3 µM	84.5 µM	81.4 µM	40.9 µM	43.9 µM	33.3 µM	77.4 µM	> 100 µM	> 100 µM
COc1cccc(N(CN2C(=O)CCC2C(=O)O)C(C)=O)c1 (stereo unspecified)	> 100 µM	> 100 µM	> 100 µM	> 100 µM	> 100 µM	> 100 µM	> 100 µM	> 100 µM	> 100 µM	> 100 µM	> 100 µM	> 100 µM	> 100 µM
O=C1C=CC(=O)c2c1ccc1c3ccccc3n(Cc3cccc([N+](=O)[O-])c3)c21	> 100 µM	> 100 µM	> 61.4 µM	> 100 µM	39.2 µM	> 100 µM	54.7 µM	> 80.6 µM	> 100 µM	26.3 µM	34.6 µM	> 78.6 µM	> 100 µM
c1ccc2c(c1)NC1(N3CCCCC3)CCCCC21 (stereo unspecified)	> 100 µM	> 100 µM	> 100 µM	> 100 µM	80.2 µM	> 100 µM	> 100 µM	> 100 µM	> 100 µM	> 100 µM	> 100 µM	> 100 µM	> 100 µM
O=C(C/C(=N/O)c1cc(-c2ccccc2)no1)c1ccccc1	73.3 µM	> 100 µM	42.3 µM	> 100 µM	41.2 µM	> 100 µM	86 µM	35 µM	40.3 µM	> 100 µM	41.9 µM	> 100 µM	> 100 µM
O=C1C=C(OCCCCl)C(=O)c2c(O)ccc(O)c21	3.55 µM	3.37 µM	2.94 µM	3.2 µM	3.09 µM	0.306 µM	3.44 µM	2.76 µM	7.59 µM	0.349 µM	1.38 µM	0.882 µM	0.863 µM

Reference: PubChem BioAssay (NCI)
